Source: US20040153145A1, “Fixation method for bioprostheses” (Clemson University, priority 2002, published 2004)

Experiments:
[1] = Mass loss of fixed aortic wall after elastase digestion; set-up: species or system Porcine; details: for % Mass Loss: porcine aortic wall fixed 7 days, 8.5 Units pancreatic elastase, 2 days, 37° C.; for increase in resistance to elastase of aorta: versus fresh aortic wall (60% mass loss in 2 days)
Protocol: Porcine aorta fragments were collected from a local slaughterhouse and placed in ice-cold saline. The aorta fragments were fixed separately with GA, TA, and a combination of GA and TA as described below. Following fixation, the samples were treated with high concentrations of elastase to test resistance to enzymatic degradation.
(§1) Porcine aortic conduits were fixed for 7 days at room temperature in either:
0.6% GA in 50 mM Hepes buffered saline at pH 7.4 (GA);
0.3% TA in 50 mM Hepes buffered saline at pH 7.4 (TA); or
A mixture of 0.6% GA and 0.3% TA in 50 mM Hepes buffered saline at pH 7.4 (GA & TA).
After fixation, tissues were washed in normal saline followed by ddH2O and fragments of 4×4 mm were dissected and lyophilized. Tissue fragments from each group were weighed and incubated for 2 days (about 48 hours) at 37° C. with 8.5 Units of pancreatic elastase in elastase buffer (50 mM Tris, 1 mM CaCl2, 0.02% NaN3, pH 7.8). As positive controls, fresh, untreated tissues exposed to elastase solution were used. Tissue fragments were thoroughly rinsed in ddH2O, lyophilized and weighed. Mass loss due to enzyme digestion was calculated from the difference between tissue weight before and after incubation in elastase. Lower values of Mass Loss, set forth in Table 2 and FIG. 3, are indicative of better tissue preservation and improved putative protection of elastin from enzymatic degradation.

[2] = Thermal denaturation temperature (Td) of fixed pericardium by DSC; type: physicochemical, bovine; details: for Td after 24 hours / Td after 44 hours: bovine pericardium, +/− SEM, n = 6; for Td after 24 hours: fixation 24 hours; for Td after 44 hours: fixation 44 hours
Protocol: Collagen rich tissue was used as a model to test the possible interference of TA with GA-mediated fixation. Samples of bovine pericardium (tissue including about 85% collagen and 5-10% elastin) was fixed at room temperature in one of either: 1% TA in phosphate buffered saline at pH 7.4 for 24 and 44 hours (TA); 0.5% GA in phosphate buffered saline at pH 7.4 for 24 and 44 hours (GA); 0.5% GA in phosphate buffered saline at pH 7.4 for 60 minutes followed by 1% TA in phosphate buffered saline at pH 7.4 for 24 and 44 hours (GA/TA); or 1% TA in phosphate buffered saline at pH 7.4 for 60 minutes followed by 0.5% GA in phosphate buffered saline at pH 7.4 for 24 and 44 hours (TA/GA). After fixation, tissues were washed in normal saline and the extent of cross-linking was evaluated by analysis of the thermal denaturation temperature (Td). Td reflects that the temperature at which native collagen molecules unravel (around 65° C.) is increased in chemically cross-linked tissues. […]. In the case of connective tissues, Td represents the temperature at which native collagen molecules unravel. This process leads to protein denaturation and is recorded as a peak maximum (FIG. 1). […] Tissues (native, GA fixed, TA fixed, and GA/TA combination fixed, as described above) were rinsed in saline and 2 mm^2 samples were cut and hermetically sealed in Differential Scanning Calorimetry (DSC) aluminum pans. Samples were heated at a rate of 10° C./min, from 25° C. to 110° C. and the temperature of thermal denaturation (Td) for each sample was recorded on a Perkin Elmer DSC 7 machine.

pure elastin = test: Degradation of orcein-labeled pure elastin by elastase; type: biochemical; details: versus buffer control elastin, completely degraded
Protocol: Pure elastin labeled with orcein was used as a substrate for the enzyme elastase. The labeled elastin substrate was used per se, as well as labeled elastin fixed separately with glutaraldehyde (GA) and with tannic acid (TA).
Purified insoluble elastin labeled with orcein was treated for 24 hours at room temperature with one of:
0.6% GA in 50 mM Hepes buffered saline at pH 7.4 (GA-fixed elastin);
0.3% TA in 50 mM Hepes buffered saline at pH 7.4 (TA-fixed elastin); or
50 mM Hepes buffered saline at pH 7.4 (Buffer control).
Elastin samples were centrifuged at 3000 rpm for 10 minutes at room temperature, rinsed with double distilled (dd)H2O and dialyzed in ddH2O. Treated elastin was suspended in elastase buffer (50 mM Tris, 1 mM CaCl2, 0.02% NaN3, pH 7.8) at a concentration of 20 mg/ml. A blank of labeled elastin incubated in the absence of elastase was also prepared for comparison.
Pure pancreatic elastase was prepared at a concentration of 1 Unit/ml in elastase buffer (described above), mixed with treated elastin samples in a 1 to 1 ratio and incubated at 37° C. for 3 days. Samples were centrifuged and elastin degradation was assessed by measuring the presence of soluble orcein-labeled elastin peptides in supernatants, by measuring optical density at 570 nm.

[3] = Calcification of fixed aorta after subdermal implantation in juvenile rats; type: in vivo, Sprague-Dawley rats; details: porcine aorta, subdermal implant in juvenile rats, +/− SEM, n = 10
Protocol: Porcine aorta fragments were collected from a local slaughterhouse and placed in ice-cold saline. The aorta fragments were fixed with GA and separately with a combination of GA and TA as described below. Following fixation, samples were implanted subdermally in juvenile rats to test for calcification potential.
as §1
0.6% GA in 50 mM Hepes buffered saline at pH 7.4 (GA); or
a mixture of 0.6% GA and 0.3% TA in 50 mM Hepes buffered saline at pH 7.4 (GA & TA).
After fixation, tissues were washed in normal saline and fragments of 4×4 mm were tested for calcification by subdermal implantation in juvenile rats (the process used is described in detail by Bailey M, Xiao H, Ogle M, Vyavahare N., ‘Aluminum chloride pretreatment of elastin inhibits elastolysis by matrix metalloproteinases and leads to inhibition of elastin-oriented calcification,’ The American Journal of Pathology, 2001;159(6):1981-6, which is herein incorporated by reference). […]
At 7 and 21 days after implantation, rats were humanely euthanized, tissue samples explanted from their subdermal pouches, dried and analyzed for calcium content using atomic absorbtion spectrophotometry (as outlined in publication above). […]

% Mass Loss [1]	Td after 24 hours [2]	Td after 44 hours [2]	reduction of elastin degradation by elastase (pure elastin)	Td ([2]; pericardium, DSC 10° C./min, FIG. 1, fresh around 65° C.)	SMILES	increase in resistance to elastase of aorta [1]	Calcium content after 7 days ([3]; 7 days)	Calcium content after 21 days ([3]; 21 days)
41.56%	68.4 +/− 1.4 °C	72.6 +/− 0.9 °C			O=C(OC[C@H]1O[C@@H](OC(=O)c2cc(O)c(O)c(OC(=O)c3cc(O)c(O)c(O)c3)c2)[C@H](OC(=O)c2cc(O)c(O)c(OC(=O)c3cc(O)c(O)c(O)c3)c2)[C@@H](OC(=O)c2cc(O)c(O)c(OC(=O)c3cc(O)c(O)c(O)c3)c2)[C@@H]1OC(=O)c1cc(O)c(O)c(OC(=O)c2cc(O)c(O)c(O)c2)c1)c1cc(O)c(O)c(OC(=O)c2cc(O)c(O)c(O)c2)c1 [TA, tannic acid]	about 20%		
39.33%	84.5 +/− 0.7 °C	85.1 +/− 1.1 °C	6.7%	87 °C	O=CCCCC=O [GA, glutaraldehyde]	about 20%	15.31 +/− 1.54 μg Ca/mg dry	42.18 +/− 2.21 μg Ca/mg dry
